What was measured:
[1] = test system: TGFβ/SMAD Signaling Pathway SBE reporter cell line; assay: TGFβ reporter assay, in vitro small molecule screening (luciferase); type: cell-based; conditions: TGFβ stimulation, luminescence
Procedure: TGFβ/SMAD Signaling Pathway SBE reporter cell line was obtained from BPS Bioscience. Cells were passed, expanded, and stored in liquid nitrogen as per the supplier's instructions with the exception that growth media is changed to DMEM-C with Geneticin (DMEM supplemented with 10% fetal bovine serum, 1×NEAA, 1 mM Pyruvate, 2 mM glutamine, 50 μg/mL penicillin, 50 U/mL streptomycin and 400 μg/mL of Geneticin). The assay media was MEM supplemented with 0.5% fetal bovine serum, 1×NEAA, 1 mM Pyruvate, 50 μg/mL penicillin and 50 U/mL streptomycin.
Test samples (at desired concentrations diluted in assay media) were added to a 96-well assay plate, 20 μL per well. Reporter cells were harvested from the tissue culture flasks by incubation in small quantity of PBS at 37° C. for two minutes after the media in the flask is removed and cells rinsed with PBS. Cells were counted and diluted in the assay media at approximately 0.5×10^6 cells/mL and then 80 μL/well of cells were added to the assay plate containing the 20 μL/well of test samples (or media only), and incubated for approximately 5-6 hours at 37° C. in a 5% CO2 humidified incubator. After that time, 15 μL of TGFβ diluted to 12 ng/mL in the assay media was added to the plate. Controls included TGFβ titration (from 50 to 0 ng/mL) without inhibitors, and media only (without cells, inhibitor or TGFβ). Plates were incubated at 37° C. in a 5% CO2 humidified incubator for 18 h. Luciferase substrate solution is subsequently added at 100 μL per well, incubated in the dark at room temperature for 15 min, and luminescence is measured using a luminometer. EC50 values and curve fits were obtained using Prism (GraphPad Software).

[2] = biological target: T1, TGFBR2 (Homo sapiens, UniProt P37173); assay: TGFBR2 RBC assay (enzyme inhibition assay, Reaction Biology Corp.); type: biochemical
T1 construct: purchased Reaction Biology Corp
T1 sequence (P37173 23-567): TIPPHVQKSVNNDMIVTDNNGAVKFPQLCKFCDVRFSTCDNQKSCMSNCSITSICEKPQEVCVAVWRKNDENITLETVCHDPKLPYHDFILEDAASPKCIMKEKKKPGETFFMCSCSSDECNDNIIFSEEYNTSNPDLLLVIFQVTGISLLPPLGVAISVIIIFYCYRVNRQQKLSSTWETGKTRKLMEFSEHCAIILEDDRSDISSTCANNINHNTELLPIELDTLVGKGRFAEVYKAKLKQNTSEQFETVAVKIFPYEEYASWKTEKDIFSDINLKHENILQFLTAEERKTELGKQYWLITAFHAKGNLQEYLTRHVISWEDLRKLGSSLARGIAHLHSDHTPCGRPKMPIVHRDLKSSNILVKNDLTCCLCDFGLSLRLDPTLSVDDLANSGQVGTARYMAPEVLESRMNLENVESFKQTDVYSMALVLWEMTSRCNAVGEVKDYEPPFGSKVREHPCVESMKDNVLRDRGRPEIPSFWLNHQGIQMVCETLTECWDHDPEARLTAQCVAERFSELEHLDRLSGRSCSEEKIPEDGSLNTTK
Procedure: Compounds of the disclosure were also assayed by Reaction Biology Corp. using the TGFBR2 RBC assay (enzyme inhibition assay). […] NT refers to not tested.

NCCNC(=O)c1ccc(-c2cnc(N)c(C(=O)Nc3cnccc3N3CCOCC3)n2)cc1 [Compound 75]
EC50 [1]: 100 to 1000 nM
IC50 [2]: < 50 nM

Nc1ncc(-c2ccc(C(=O)NCCNC(=O)OCc3ccccc3)cc2)nc1C(=O)Nc1cnccc1N1CCOCC1 [Compound 76]
EC50 [1]: 100 to 1000 nM
IC50 [2]: < 50 nM

Nc1ncc(-c2ccc3c(c2)CCNC3)nc1C(=O)Nc1cnccc1N1CCOCC1 [Compound 77]
EC50 [1]: 50 to 100 nM
IC50 [2]: 50 to 100 nM

CC(C)(C)OC(=O)N1CCc2cc(-c3cnc(N)c(C(=O)Nc4cnccc4N4CCOCC4)n3)ccc2C1 [Compound 78]
EC50 [1]: < 50 nM
IC50 [2]: < 50 nM

Nc1ncc(-c2ccc(CCCNC(=O)OCc3ccccc3)cc2)cc1C(=O)Nc1cnccc1N1CCOCC1 [Compound 79]
EC50 [1]: 100 to 1000 nM
IC50 [2]: > 1000 nM

NCCNC(=O)Cc1ccc(-c2cnc(N)c(C(=O)Nc3cnccc3N3CCOCC3)n2)cc1 [Compound 80]
EC50 [1]: 100 to 1000 nM
IC50 [2]: 50 to 100 nM

CC(C)(C)OC(=O)N1CCN(C(=O)c2ccc(-c3cnc(N)c(C(=O)Nc4cnccc4N4CCOCC4)n3)cc2)CC1 [Compound 81]
EC50 [1]: 50 to 100 nM
IC50 [2]: 100 to 1000 nM

Nc1ncc(-c2ccc(N3CCNCC3=O)cc2)nc1C(=O)Nc1cnccc1N1CCOCC1 [Compound 84]
EC50 [1]: 100 to 1000 nM
IC50 [2]: 100 to 1000 nM

CC(C)(C)OC(=O)N1CCN(Cc2ccc(-c3cnc(N)c(C(=O)Nc4cnccc4N4CCOCC4)n3)cc2)C(=O)C1 [Compound 85]
EC50 [1]: < 50 nM
IC50 [2]: < 50 nM

Nc1nc(-c2ccc(CCC(=O)N3CCN(C(=O)OCc4ccccc4)CC3)cc2)cnc1C(=O)Nc1cnccc1N1CCOCC1 [Compound 86]
EC50 [1]: 100 to 1000 nM
IC50 [2]: < 50 nM

Nc1ncc(-c2ccc(CN3CCNCC3=O)cc2)nc1C(=O)Nc1cnccc1N1CCOCC1 [Compound 87]
EC50 [1]: 50 to 100 nM
IC50 [2]: < 50 nM

Nc1ncc(-c2ccc(CCC(=O)N3CCNCC3)cc2)nc1C(=O)Nc1cnccc1N1CCOCC1 [Compound 88]
EC50 [1]: 50 to 100 nM
IC50 [2]: < 50 nM

CC(C)(C)OC(=O)N1CCN(Cc2ccc(-c3cnc(N)c(C(=O)Nc4cnccc4N4CCOCC4)n3)cc2)CC1 [Compound 89]
EC50 [1]: 50 to 100 nM
IC50 [2]: < 50 nM

Nc1ncc(-c2ccc(CC(=O)N3CCN(C(=O)OCc4ccccc4)CC3)cc2)nc1C(=O)Nc1cnccc1N1CCOCC1 [Compound 90]
EC50 [1]: 50 to 100 nM
IC50 [2]: < 50 nM

Nc1ncc(-c2ccc(CN3CCNCC3)cc2)nc1C(=O)Nc1cnccc1N1CCOCC1 [Compound 91]
EC50 [1]: 50 to 100 nM
IC50 [2]: 50 to 100 nM

Nc1ncc(-c2ccc(CC(=O)N3CCNCC3)cc2)nc1C(=O)Nc1cnccc1N1CCOCC1 [Compound 92]
EC50 [1]: 100 to 1000 nM
IC50 [2]: < 50 nM

NCCc1ccc(-c2cnc(N)c(C(=O)Nc3cnccc3CN3CCCC3)n2)cc1 [Compound 93]
EC50 [1]: 100 to 1000 nM
IC50 [2]: 100 to 1000 nM

Nc1ncc(-c2ccc(CC(=O)NCCNC(=O)OCc3ccccc3)cc2)nc1C(=O)Nc1cnccc1N1CCOCC1 [Compound 94]
EC50 [1]: 100 to 1000 nM
IC50 [2]: < 50 nM

Nc1ncc(-c2ccc(CCNC(=O)OCc3ccccc3)cc2)nc1C(=O)Nc1cnccc1N1CC2(COC2)C1 [Compound 95]
EC50 [1]: > 1000 nM
IC50 [2]: > 1000 nM

COC1CN(c2ccncc2NC(=O)c2nc(-c3ccc(CCNC(=O)OCc4ccccc4)cc3)cnc2N)C1 [Compound 96]
EC50 [1]: > 1000 nM
IC50 [2]: > 1000 nM

COCCCNc1ccncc1NC(=O)c1nc(-c2ccc(CCN)cc2)cnc1N [Compound 97]
EC50 [1]: > 1000 nM
IC50 [2]: > 1000 nM

COC1CN(c2ccncc2NC(=O)c2nc(-c3ccc(CCN)cc3)cnc2N)C1 [Compound 98]
EC50 [1]: > 1000 nM
IC50 [2]: > 1000 nM

COCCN(C)c1ccncc1NC(=O)c1nc(-c2ccc(CCNC(=O)OCc3ccccc3)cc2)cnc1N [Compound 101]
EC50 [1]: 100 to 1000 nM
IC50 [2]: 50 to 100 nM

COCCN(C)c1ccncc1NC(=O)c1nc(-c2ccc(CCN)cc2)cnc1N [Compound 102]
EC50 [1]: 100 to 1000 nM
IC50 [2]: 100 to 1000 nM

COCCCN(C)c1ccncc1NC(=O)c1nc(-c2ccc(CCN)cc2)cnc1N [Compound 103]
EC50 [1]: 100 to 1000 nM
IC50 [2]: < 50 nM

NCCc1ccc(-c2cnc(N)c(C(=O)Nc3cnccc3NCC(N)=O)n2)cc1 [Compound 104]
EC50 [1]: > 1000 nM
IC50 [2]: > 1000 nM

C[C@H](NC(=O)OCC1c2ccccc2-c2ccccc21)C(=O)NCc1ccc(-c2cnc(N)c(C(=O)Nc3cnccc3N3CCOCC3)n2)cc1 [Compound 105]
EC50 [1]: 100 to 1000 nM
IC50 [2]: 100 to 1000 nM

C[C@H](N)C(=O)NCc1ccc(-c2cnc(N)c(C(=O)Nc3cnccc3N3CCOCC3)n2)cc1 [Compound 106]
EC50 [1]: 100 to 1000 nM
IC50 [2]: 50 to 100 nM

CC(C)[C@H](NC(=O)OC(C)(C)C)C(=O)N[C@@H](C)C(=O)NCc1ccc(-c2cnc(N)c(C(=O)Nc3cnccc3N3CCOCC3)n2)cc1 [Compound 107]
EC50 [1]: 100 to 1000 nM
IC50 [2]: < 50 nM

CC(C)[C@H](N)C(=O)N[C@@H](C)C(=O)NCc1ccc(-c2cnc(N)c(C(=O)Nc3cnccc3N3CCOCC3)n2)cc1 [Compound 108]
EC50 [1]: 50 to 100 nM
IC50 [2]: 50 to 100 nM

CC(C)(C)OC(=O)N1CCC[C@H]1C(=O)NCc1ccc(-c2cnc(N)c(C(=O)Nc3cnccc3N3CCOCC3)n2)cc1 [Compound 109]
EC50 [1]: 100 to 1000 nM
IC50 [2]: < 50 nM

Nc1ncc(-c2ccc(CNC(=O)[C@@H]3CCCN3)cc2)nc1C(=O)Nc1cnccc1N1CCOCC1 [Compound 110]
EC50 [1]: 100 to 1000 nM
IC50 [2]: < 50 nM

CC(C)[C@H](NC(=O)OC(C)(C)C)C(=O)N1CCC[C@H]1C(=O)NCc1ccc(-c2cnc(N)c(C(=O)Nc3cnccc3N3CCOCC3)n2)cc1 [Compound 111]
EC50 [1]: 100 to 1000 nM
IC50 [2]: < 50 nM

CC(C)[C@H](N)C(=O)N1CCC[C@H]1C(=O)NCc1ccc(-c2cnc(N)c(C(=O)Nc3cnccc3N3CCOCC3)n2)cc1 [Compound 112]
EC50 [1]: 50 to 100 nM
IC50 [2]: < 50 nM

CN(CC#N)c1ccncc1NC(=O)c1nc(-c2ccc(CCNC(=O)OCc3ccccc3)cc2)cnc1N [Compound 113]
EC50 [1]: > 1000 nM
IC50 [2]: > 1000 nM

Nc1ncc(N2CCC3(CCNCC3)C2)nc1C(=O)Nc1cnccc1N1CCOCC1 [Compound 114]
EC50 [1]: > 1000 nM
IC50 [2]: > 1000 nM

CC(C)(C)OC(=O)N1CCN(c2cnc(N)c(C(=O)Nc3cnccc3N3CCOCC3)n2)CC1 [Compound 115]
EC50 [1]: > 1000 nM
IC50 [2]: > 1000 nM

Nc1ncc(-c2ccc(CCNC(=O)OCc3ccccc3)cn2)nc1C(=O)Nc1cnccc1N1CCOCC1 [Compound 116]
EC50 [1]: 100 to 1000 nM
IC50 [2]: 100 to 1000 nM

NCCc1ccc(-c2cnc(N)c(C(=O)Nc3cnccc3N3CCOCC3)n2)nc1 [Compound 117]
EC50 [1]: > 1000 nM
IC50 [2]: 100 to 1000 nM

Nc1ncc(N2CCNCC2)nc1C(=O)Nc1cnccc1N1CCOCC1 [Compound 118]
EC50 [1]: > 1000 nM
IC50 [2]: > 1000 nM

Nc1ncc(-c2ccc(CCNC(=O)OCc3ccccc3)cc2)nc1C(=O)Nc1cnccc1-n1ccnn1 [Compound 120]
EC50 [1]: > 1000 nM
IC50 [2]: < 50 nM

Nc1ncc(-c2ccc(CCNC(=O)OCc3ccccc3)cc2)nc1C(=O)Nc1cnccc1-c1ccccc1 [Compound 121]
EC50 [1]: 100 to 1000 nM
IC50 [2]: < 50 nM

CC(C)(C)OC(=O)NC1CCN(c2cnc(N)c(C(=O)Nc3cnccc3N3CCOCC3)n2)CC1 [Compound 122]
EC50 [1]: > 1000 nM
IC50 [2]: > 1000 nM

Nc1ncc(-c2ccc(CCNC(=O)OCc3ccccc3)nc2)nc1C(=O)Nc1cnccc1N1CCOCC1 [Compound 124]
EC50 [1]: 100 to 1000 nM
IC50 [2]: 100 to 1000 nM

NCCc1ccc(-c2cnc(N)c(C(=O)Nc3cnccc3N3CCOCC3)n2)cn1 [Compound 125]
EC50 [1]: > 1000 nM
IC50 [2]: 100 to 1000 nM

Nc1ncc(-c2ccc(CCNC(=O)OCc3ccccc3)cc2)nc1C(=O)Nc1cnc2ccccc2c1N1CCOCC1 [Compound 126]
EC50 [1]: 100 to 1000 nM
IC50 [2]: > 1000 nM

NCCc1ccc(-c2cnc(N)c(C(=O)Nc3cnccc3-c3cccnc3)n2)cc1 [Compound 127]
EC50 [1]: 100 to 1000 nM
IC50 [2]: < 50 nM

Nc1ncc(-c2ccc(CCNC(=O)OCc3ccccc3)cc2)nc1C(=O)Nc1cnccc1-c1cccnc1 [Compound 128]
EC50 [1]: 100 to 1000 nM
IC50 [2]: < 50 nM

NCCc1ccc(-c2cnc(N)c(C(=O)Nc3cnccc3-c3ccncc3)n2)cc1 [Compound 129]
EC50 [1]: 100 to 1000 nM
IC50 [2]: 50 to 100 nM

NCCc1ccc(-c2cnc(N)c(C(=O)Nc3cnc4ccccc4c3N3CCOCC3)n2)cc1 [Compound 130]
EC50 [1]: > 1000 nM
IC50 [2]: > 1000 nM

NCCc1ccc(-c2cnc(N)c(C(=O)Nc3c(N4CCOCC4)ccnc3N)n2)cc1 [Compound 131]
EC50 [1]: > 1000 nM
IC50 [2]: > 1000 nM

NCCc1ccc(-c2cnc(N)c(C(=O)Nc3cnccc3-c3ccccn3)n2)cc1 [Compound 132]
EC50 [1]: 100 to 1000 nM
IC50 [2]: < 50 nM

Nc1ncc(-c2ccc(CCNC(=O)OCc3ccccc3)cc2)nc1C(=O)Nc1cnccc1-c1ccccn1 [Compound 133]
EC50 [1]: > 1000 nM
IC50 [2]: < 50 nM

NCCc1ccc(-c2cnc(N)c(C(=O)Nc3cnc4[nH]ccc4c3N3CCOCC3)n2)cc1 [Compound 134]
EC50 [1]: 100 to 1000 nM
IC50 [2]: < 50 nM

Reference: patent US20220362396A1, “AMINO-PYRAZINECARBOXAMIDE COMPOUNDS, CONJUGATES, AND USES THEREOF” (Silverback Therapeutics, Inc., priority 2018, published 2022)
